{"source": "patent US8163169B2", "about": "“Hydroconversion processes employing multi-metallic catalysts and method for making thereof” (Chevron U.S.A. Inc., priority 2007, dated 2012)", "origin": "cited, not measured here", "system": "rats", "details": "single oral dose to rats"}
{"smiles": "O=CC(=O)O", "note": "[glyoxylic]", "values": [{"measurement": "LD50", "result": 3000, "unit": "mg/kg"}]}
